Data as given in ChEMBL document CHEMBL1201862, “PubChem BioAssay data set” (2004).
The source made the active and inactive calls. For most assays here, no stated cut-off is given here; in the data, actives have a measured EC50 and inactives only a lower limit.

Experiments:
[1] = luciferase reporter signal reduction – luminescence, H4-C neuroglioblastoma cells, dose response (AID 2458); format: functional, cell-based;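 further: H4 neuroglioblastoma cells stably carrying a luciferase reporter gene fusion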
[2] = DRD fibroblast viability loss – cell-based, non-viral oncogenic, luminescence, dose response (AID 1934); format: functional; details: Homo sapiens
cells [3] = format: functional, cell-based
BJ [4] = test: BJ-TERT-LT-ST fibroblast viability loss – cell-based, RAS-independent, luminescence, dose response (AID 1935); format: functional; details: Homo sapiens;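 further: BJ fibroblasts immortalized with TERT plus LT and ST oncogenes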
[5] = HEK-293T cell viability reduction – luminescence, B-cell screen hits, cytotoxicity control for BCR NF-kB inhibitor project, dose response (AID 489021); format: functional, cell-based;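 further: HEK-293T cells carrying an NF-kB luciferase reporter; cells exposed to compound for about 14 hours before viability readout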
[6] = alpha-synuclein stem-loop luciferase translation blockers – H4 neuroglioma cells, luminescence, confirmation (AID 1988); format: functional, cell-based
[7] = luciferase reporter signal suppression in cells – H4 neuroglioma cells, luminescence, dose response (AID 1990); format: functional, cell-based
[8] = alpha-synuclein stem-loop translation blockers – luminescence, H4 neuroglioblastoma cells, dose confirmation, confirmation (AID 2454); format: functional, cell-based;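 further: H4 neuroglioblastoma cells carrying an alpha-synuclein 5'UTR luciferase reporter; potency for inhibition of the luciferase signal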
BJ [9] = test: cells; format: functional, cell-based; details: Homo sapiens
BJ [10] = test: BJ-TERT fibroblast viability loss – cell-based, RAS-independent, luminescence, dose response (AID 1933); format: functional; details: Homo sapiens
[11] = M. tuberculosis H37Rv growth inhibitors, H37Rv strain (AID 1626); format: functional
[12] = viability loss in human Jurkat cells – cell-based, luminescence, cytotoxicity control for P. falciparum gametocyte viability project, dose response (AID 1117277); format: functional;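 further: potency reflects loss of cellular ATP meaning fewer viable cells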
[13] = viability inhibitors of stage V gametocytes – luminescence, dose response (AID 1117278); format: functional, cell-based;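 further: gametocytes exposed to compound for 24 hours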
cells [14] = test: cells
[15] = Trypanosoma cruzi growth suppression in host cells – NIH3T3 host cells, beta-gal luminescence, confirmation (AID 2044); format: functional, cell-based;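 further: intracellular parasites grown in NIH/3T3 mouse fibroblasts as host cells; luminescent beta-galactosidase reporter signal from transgenic T. cruzi replicating inside host cells; inhibitors lower the luminescence signal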
[16] = NIH3T3 cell viability loss – ATP luminescence, mouse fibroblasts, counter-screen, dose response (AID 2010); format: functional, cell-based;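 further: cells exposed to compound for about 90 hours before reading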
[17] = molecular target: T1, Tyrosine-protein phosphatase non-receptor type 7 (Homo sapiens, UniProt P35236); test: HePTP tyrosine phosphatase activity blockers – biochemical, absorbance, leukemia target, primary screen (AID 521); format: functional
T1 sequence (P35236 whole entry): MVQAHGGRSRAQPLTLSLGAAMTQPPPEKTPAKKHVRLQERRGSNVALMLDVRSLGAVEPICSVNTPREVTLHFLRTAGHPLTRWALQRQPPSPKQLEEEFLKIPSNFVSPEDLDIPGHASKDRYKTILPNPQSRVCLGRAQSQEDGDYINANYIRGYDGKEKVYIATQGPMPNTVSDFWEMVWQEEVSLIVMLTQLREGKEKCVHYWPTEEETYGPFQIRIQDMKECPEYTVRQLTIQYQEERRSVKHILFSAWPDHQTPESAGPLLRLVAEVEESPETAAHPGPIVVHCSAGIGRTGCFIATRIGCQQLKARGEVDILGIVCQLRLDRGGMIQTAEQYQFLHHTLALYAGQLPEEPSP

[18] = molecular target: T2, Heat shock factor protein 1 (Mus musculus, UniProt P38532); test: enhancement of HSF1-driven luciferase signal – cell-based, NIH3T3, luminescence, dose retest, confirmation (AID 435004); format: functional;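 further: stress induced by proteasome inhibitor MG132 added 30 min after compound; luciferase reporter driven by HSF1 response element in NIH3T3 cells; actives raise luminescence as potentiators of the MG132 stress response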
T2 sequence (P38532 whole entry): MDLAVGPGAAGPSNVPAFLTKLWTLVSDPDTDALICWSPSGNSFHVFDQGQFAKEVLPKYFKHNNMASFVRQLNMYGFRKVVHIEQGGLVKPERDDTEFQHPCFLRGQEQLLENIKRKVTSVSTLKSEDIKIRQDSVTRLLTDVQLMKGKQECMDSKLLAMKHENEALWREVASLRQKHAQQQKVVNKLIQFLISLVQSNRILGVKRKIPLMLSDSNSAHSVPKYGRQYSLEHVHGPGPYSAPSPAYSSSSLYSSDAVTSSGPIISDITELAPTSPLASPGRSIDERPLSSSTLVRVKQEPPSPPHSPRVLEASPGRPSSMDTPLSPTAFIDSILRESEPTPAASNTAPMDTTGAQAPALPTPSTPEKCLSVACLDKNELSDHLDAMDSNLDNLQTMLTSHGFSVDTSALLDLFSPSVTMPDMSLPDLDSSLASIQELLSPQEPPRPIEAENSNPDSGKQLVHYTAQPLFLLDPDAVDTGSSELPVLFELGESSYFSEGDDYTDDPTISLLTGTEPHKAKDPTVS

[19] = molecular target: Mitogen-activated protein kinase 10 (Homo sapiens, UniProt P53779); test: Dose response biochemical screening assay for inhibitors of c-Jun N-Terminal Kinase 3 (JNK3). [Related pubchem assays: 746 ]
[20] = molecular target: Luciferin 4-monooxygenase (Photinus pyralis, UniProt P08659); test: Counter Screen for Luciferase-based Assay Positives. [Related pubchem assays: 620, 618, 411 ]
HT-1080 = test: HT1080 cell viability loss – fluorescence readout (AID 620); format: functional, cell-based; details: Homo sapiens

Luciferin 4-monooxygenase, sequence (P08659 whole entry): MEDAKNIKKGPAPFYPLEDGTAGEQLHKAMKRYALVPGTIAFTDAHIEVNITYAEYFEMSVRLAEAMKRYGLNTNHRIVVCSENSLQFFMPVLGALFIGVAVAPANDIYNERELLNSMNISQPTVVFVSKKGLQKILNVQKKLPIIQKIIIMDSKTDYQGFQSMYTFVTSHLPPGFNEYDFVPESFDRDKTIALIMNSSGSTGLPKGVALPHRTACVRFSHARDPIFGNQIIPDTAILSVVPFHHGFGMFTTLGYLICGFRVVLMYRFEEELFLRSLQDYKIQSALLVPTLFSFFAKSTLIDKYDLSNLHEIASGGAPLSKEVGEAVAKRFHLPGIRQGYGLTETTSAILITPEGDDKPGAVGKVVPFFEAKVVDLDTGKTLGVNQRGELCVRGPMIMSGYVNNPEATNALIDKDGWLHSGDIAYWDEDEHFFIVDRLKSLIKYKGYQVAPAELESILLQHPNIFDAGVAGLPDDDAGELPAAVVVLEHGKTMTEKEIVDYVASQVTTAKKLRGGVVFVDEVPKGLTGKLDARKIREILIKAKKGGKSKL
Mitogen-activated protein kinase 10, sequence (P53779 whole entry): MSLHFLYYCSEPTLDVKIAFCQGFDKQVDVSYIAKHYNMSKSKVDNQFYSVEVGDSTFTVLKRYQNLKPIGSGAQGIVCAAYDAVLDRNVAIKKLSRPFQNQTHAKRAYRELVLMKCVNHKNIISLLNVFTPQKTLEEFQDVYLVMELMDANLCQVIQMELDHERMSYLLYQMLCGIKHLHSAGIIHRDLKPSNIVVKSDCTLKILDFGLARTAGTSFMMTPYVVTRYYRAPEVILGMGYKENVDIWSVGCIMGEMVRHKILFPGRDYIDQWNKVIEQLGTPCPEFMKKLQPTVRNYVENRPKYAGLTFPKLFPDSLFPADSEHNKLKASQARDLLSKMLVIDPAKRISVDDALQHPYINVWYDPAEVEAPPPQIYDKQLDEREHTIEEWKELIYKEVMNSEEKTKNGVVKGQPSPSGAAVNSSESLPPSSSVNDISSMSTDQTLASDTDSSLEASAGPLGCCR

## CCOC(=O)Cc1ccc(NC(=O)c2ccc(C(C)(C)C)cc2)cc1
[1]
  EC50: 0.266 µM (active)
[2]
  EC50: 49.5 µM (active)
Cells [3]
  EC50: 0.508 µM (active)
BJ [4]
  EC50: > 150 µM (inconclusive)
[5]
  IC50: 42.8 µM (inactive)
[6]
  EC50: < 0.1 µM (active)
[7]
  EC50: < 0.1 µM (active)
[8]
  EC50: 0.483 µM (active)
BJ [9]
  EC50: > 150 µM (not active)
BJ [10]
  EC50: 60.1 µM (active)

## CCCCOC(=O)c1ccc(NC(=O)C(=O)NCc2ccccn2)cc1
[11]
  IC50: > 100 µM (active)

## N#Cc1c(N)nc2c(c1-c1ccncc1)CCCCC2
[12]
  IC50: > 83.4 µM (inactive)
[13]
  IC50: > 109 µM (inactive)

## Cc1ccc(-c2csc(N=C(N)N)n2)c(C)c1
Cells [14]
  EC50: 0.167 µM (active)
[15]
  EC50: < 0.1 µM (active)
[16]
  EC50: > 60 µM (not active)

## O=C(NCc1cccc(F)c1)c1noc2c1CCCC2
[17]
  IC50: > 100 µM (not active)
[18]
  EC50: > 260 µM (inactive)

## CCOC(=O)c1c(-c2ccc(OC)cc2)n[nH]c1N
[19]
  IC50: 63.1 µM (not active)

## CC1CCc2nc(NC(=O)C3CCCO3)sc2C1 (stereo not drawn)
[20]
  EC50: < 0.2 µM (active)
HT-1080
  EC50: > 50 µM (not active)

## CNC(=O)C1=NCCCc2cc(OC)c(OC)cc21
[17]
  IC50: > 100 µM (not active)

## COc1ccccc1CNC(=O)Nc1cccs1
[17]
  IC50: > 100 µM (not active)
